How the values were obtained:
[1] = molecular target: T1, PrP^Sc from a prion-infected cellular lysate (Mus musculus, UniProt P04925)
[2] = molecular target: PrP^Sc from infected N2a58/22L cells (Mus musculus, UniProt P04925); type: cell-based, murine
[3] = molecular target: T1, PrP^Sc from a prion-infected cellular lysate; assay: biochemical; details: 1 h, read-out: amplification of the oligomerization in cellular extract

PrP^Sc from infected N2a58/22L cells, sequence (P04925 23-230 limits assumed): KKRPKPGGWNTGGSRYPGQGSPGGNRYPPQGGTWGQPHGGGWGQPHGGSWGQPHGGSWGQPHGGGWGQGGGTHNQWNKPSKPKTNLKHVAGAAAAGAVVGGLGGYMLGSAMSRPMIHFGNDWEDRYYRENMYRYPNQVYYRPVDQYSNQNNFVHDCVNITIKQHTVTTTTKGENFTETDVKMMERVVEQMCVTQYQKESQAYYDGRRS
T1 sequence (P04925 23-230 limits assumed): as above

Structure (SMILES) | concentration at which the compound is efficient (oligomerization on cellular extract) [1] | amount of oligomeric forms observed, compared with compound T 1 or T2 under the same conditions [2] | dosis for which the saturation of the signal (effect of oligomerisation) is achieved [2] | fold induction at 1 µM [3]
CSc1nccc(-c2ccc(Br)s2)n1 [T1] | ≥ 312 µM | – | – | –
Nc1nc(N)nc(-c2ccc(-c3ccc(-c4ccc(-c5ccc(-c6nc(N)nc(N)n6)s5)s4)s3)s2)n1 [compound I, 6,6'-(2,2':5',2":5",2'''-quaterthiophene-5,5'''-diyl)bis(1,3,5-triazine-2,4-diamine)] | – | much greater | 2.5 µM | ≥ 100
